Experiments:
[1] = biological target: T1, Adenosine receptor A1 (Rattus norvegicus, UniProt P25099)
T1 sequence (P25099 whole entry): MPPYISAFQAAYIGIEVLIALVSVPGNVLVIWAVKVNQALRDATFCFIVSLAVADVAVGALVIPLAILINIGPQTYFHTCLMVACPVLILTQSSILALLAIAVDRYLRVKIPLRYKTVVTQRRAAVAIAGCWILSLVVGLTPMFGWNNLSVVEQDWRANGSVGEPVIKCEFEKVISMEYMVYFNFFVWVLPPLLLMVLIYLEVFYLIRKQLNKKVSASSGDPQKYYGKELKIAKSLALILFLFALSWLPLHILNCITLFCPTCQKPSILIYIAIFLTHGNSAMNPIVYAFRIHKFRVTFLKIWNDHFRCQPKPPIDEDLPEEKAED
Description: Binding affinity against high affinity component of adenosine A1 receptors from rat brain membranes using [3H]DPCPX

[2] = biological target: T1, Adenosine receptor A1; remark: listed apart in the source
Description: Binding affinity against adenosine A1 receptors from rat brain membranes using [3H]CCPA

[3] = biological target: T1, Adenosine receptor A1; remark: listed apart in the source
Description: Binding affinity against low affinity component of adenosine A1 receptors from rat brain membranes using [3H]-DPCPX

[4] = biological target: T1, Adenosine receptor A1; experiment: Inhibition of adenylate cyclase via adenosine A1 receptors in rat fat cell membranes; format: functional, Membrane
[5] = biological target: T2, Adenosine A2 receptor (Homo sapiens, UniProt P29275+P29274); experiment: Agonistic activity at adenosine A2 receptor; format: functional
[6] = biological target: T2, Adenosine A2 receptor; experiment: Maximal NECA stimulation of adenylate cyclase via adenosine A2 receptor in human platelet membranes; format: cell membranes
[7] = biological target: T3, Adenosine A2 receptor (Rattus norvegicus, UniProt P29276+P30543)
[8] = Selectivity as ratio of IC50 for A1 adenosine receptor compared to EC50 for A2 adenosine receptor
[9] = biological target: T2, Adenosine A2 receptor
[10] = biological target: T3, Adenosine A2 receptor; experiment: Binding affinity against A2 adenosine receptors from rat striatal membranes with 50 nM CPA using [3H]NECA
[11] = biological target: T2, Adenosine A2 receptor; experiment: Maximal NECA stimulation of adenylate cyclase via A2 receptors in human platelet membranes; format: cell membranes
[12] = biological target: T2, Adenosine A2 receptor; experiment: Maximal NECA stimulation of adenylate cyclase via Adenosine A2 receptor in human platelet membranes; format: cell membranes
[13] = biological target: T2, Adenosine A2 receptor; experiment: Agonistic activity at Adenosine A2 receptor; format: functional
[14] = biological target: T1, Adenosine receptor A1; experiment: Inhibition of adenylate cyclase via Adenosine A1 receptor in rat fat cell membranes; format: functional, Membrane
[15] = biological target: T1, Adenosine receptor A1; experiment: Binding affinity against Adenosine A1 receptor from rat brain membranes using [3H]CCPA
[16] = biological target: T1, Adenosine receptor A1; experiment: Binding affinity against high affinity component of Adenosine A1 receptor from rat brain membranes using [3H]-DPCPX; format: cell membranes, Membrane
[17] = biological target: T1, Adenosine receptor A1; experiment: Binding affinity against low affinity component of Adenosine A1 receptor from rat brain membranes using [3H]DPCPX; format: cell membranes, Membrane
[18] = biological target: T1, Adenosine receptor A1; experiment: Binding affinity against A1 adenosine receptors from rat brain membranes using [3H]CCPA
[19] = biological target: T2, Adenosine A2 receptor; experiment: Maximal NECA stimulation of adenylate cyclase via Adenosine A2 receptor in human platelet membranes.; format: cell membranes
[20] = biological target: T1, Adenosine receptor A1; experiment: Inhibition of adenylate cyclase via A1 receptors in rat fat cell membranes; format: functional, Membrane
[21] = biological target: Adenosine A2 receptor (Rattus norvegicus) (UniProt P29276+P30543); experiment: Binding affinity against Adenosine A2 receptor from rat striatal membranes with 50 nM CPA using [3H]NECA
[22] = biological target: T2, Adenosine A2 receptor; experiment: Binding affinity against Adenosine A2 receptor from human platelet membranes using [3H]NECA
[23] = biological target: Adenosine A2a receptor (Rattus norvegicus) (UniProt P30543); experiment: Binding affinity against Adenosine A2 receptor from rat striatal membranes with 50 nM CPA using [3H]-NECA
[24] = biological target: T3, Adenosine A2 receptor; experiment: Binding affinity against Adenosine A2 receptor from rat striatal membrane with 50 nM CPA using [3H]NECA
[25] = biological target: T2, Adenosine A2 receptor; experiment: Binding affinity against A2 adenosine receptors from human platelet membranes using [3H]NECA

Sequence of Adenosine A2a receptor (Rattus norvegicus) (P30543 whole entry, looked up): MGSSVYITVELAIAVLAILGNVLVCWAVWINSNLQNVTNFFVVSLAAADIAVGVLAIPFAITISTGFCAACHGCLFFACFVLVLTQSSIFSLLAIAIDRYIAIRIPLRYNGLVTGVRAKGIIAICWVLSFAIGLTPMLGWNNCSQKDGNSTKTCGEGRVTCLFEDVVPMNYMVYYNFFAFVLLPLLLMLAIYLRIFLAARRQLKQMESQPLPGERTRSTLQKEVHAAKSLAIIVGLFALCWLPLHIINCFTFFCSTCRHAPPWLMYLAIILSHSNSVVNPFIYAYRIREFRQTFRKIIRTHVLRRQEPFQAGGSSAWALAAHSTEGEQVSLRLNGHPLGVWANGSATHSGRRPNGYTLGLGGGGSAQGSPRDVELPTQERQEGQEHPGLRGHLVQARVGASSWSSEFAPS

Row | SMILES | Ki [1] [nM] | Ki [2] [nM] | Ki [3] [nM] | IC50 [4] [µM] | Emax [5] [%] | EC50 [6] [nM] | Ki [7] [nM] | A2 selectivity [8] | Ki [9] [nM] | Emax [13] [%] | Ki [16] [nM] | further results
1 | CCCCC#Cc1nc(N)c2ncn([C@@H]3O[C@H](CO)[C@@H](O)[C@H]3O)c2n1 | 12.5 | 15.9 | 633 | 2.3 | 65 | – | – | – | – | – | – | –
2 | CCCC#Cc1nc(N)c2ncn([C@@H]3O[C@H](CO)[C@@H](O)[C@H]3O)c2n1 | 16 | 21.5 | 849 | 3 | 65 | 127 | 16.4 | 24 | 7.3 | – | – | –
3 | CCCCCC#Cc1nc(N)c2ncn(C3O[C@H](C(=O)NCC)[C@@H](O)[C@H]3O)c2n1 (some centres undefined) | – | – | – | – | – | – | – | 34 | – | 100 | 171 | Ki [10]: 4.7 nM; EC50 [11]: 388 nM; EC50 [12]: 0.0371 µM; IC50 [14]: 13.1 µM; Ki [15]: 89 nM; Ki [17]: 2910 nM
4 | CCCCCCC#Cc1nc(N)c2ncn([C@@H]3O[C@H](CO)[C@@H](O)[C@H]3O)c2n1 | 19.6 | 25.2 | 823 | 2.91 | 65 | 681 | 6.3 | 4 | 39.9 | – | – | –
5 | CCCCC#Cc1nc(N)c2ncn([C@@H]3O[C@H](C(=O)NCC)[C@@H](O)[C@H]3O)c2n1 | 136 | 43.9 | 3160 | 4.38 | 100 | 105 | 3.8 | 42 | 5.7 | – | – | –
6 | CCCC#Cc1nc(N)c2ncn([C@@H]3O[C@H](C(=O)NCC)[C@@H](O)[C@H]3O)c2n1 | – | – | – | – | – | – | – | 44 | – | 100 | 33 | Ki [18]: 40.8 nM; EC50 [19]: 19.5 nM; IC50 [14]: 1.62 µM; IC50 [20]: 2700 nM; A2 selectivity [21]: 2; Ki [22]: 12.6 nM; EC50 [23]: 62 nM
7 | CCCCCC#Cc1nc(N)c2ncn([C@@H]3O[C@H](CO)[C@@H](O)[C@H]3O)c2n1 | 32.2 | 28.4 | 1220 | 3.38 | 65 | 414 | 2.8 | 8 | 20.8 | – | – | –
8 | CCCCCCC#Cc1nc(N)c2ncn(C3O[C@H](C(=O)NCC)[C@@H](O)[C@H]3O)c2n1 (some centres undefined) | – | – | – | – | – | – | – | 23 | – | 100 | 67 | EC50 [11]: 585 nM; EC50 [12]: 13.5 µM; Ki [15]: 64.4 nM; Ki [24]: 14.8 nM; Ki [17]: 2940 nM; Ki [25]: 159 nM

— ChEMBL document CHEMBL1126089, “2-Alkynyl derivatives of adenosine and adenosine-5'-N-ethyluronamide as selective agonists at A2 adenosine receptors” (J Med Chem, 1992)
